One series deals with T1, mPPARγ C313A (Mus musculus, UniProt P37238, C313A).
T1 construct: host or cells: HEK293T
T1 sequence (P37238 1-505 C313A): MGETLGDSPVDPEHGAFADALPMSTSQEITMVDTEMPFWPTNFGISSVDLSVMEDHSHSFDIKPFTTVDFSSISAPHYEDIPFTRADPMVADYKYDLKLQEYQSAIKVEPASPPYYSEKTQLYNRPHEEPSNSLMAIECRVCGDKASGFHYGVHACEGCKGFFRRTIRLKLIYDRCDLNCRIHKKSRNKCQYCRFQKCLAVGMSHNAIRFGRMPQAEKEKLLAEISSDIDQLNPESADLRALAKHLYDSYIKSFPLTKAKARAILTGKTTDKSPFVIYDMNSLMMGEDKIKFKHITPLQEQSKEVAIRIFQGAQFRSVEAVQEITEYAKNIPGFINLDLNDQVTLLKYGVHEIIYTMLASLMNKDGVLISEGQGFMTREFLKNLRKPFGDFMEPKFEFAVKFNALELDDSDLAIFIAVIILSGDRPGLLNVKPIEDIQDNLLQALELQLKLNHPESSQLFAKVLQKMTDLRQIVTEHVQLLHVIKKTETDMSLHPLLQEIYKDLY
In words: PPRE reporter assay in HEK293T cells, C313A mutant mPPARγ. Format: cell-based, murine. Also noted: key to PPRE reporter activity, Fig 1M replicates: luciferase activity normalized to TK reporter signal. Particulars: for PPRE reporter activity, Fig 1M replicates: PPARg C313A. How it is done: For PPRE reporter assay, HEK293T cells were seeded in 24-well plates at 1 × 10^5 cells/well. […] The luciferase activity was measured by Luc-Pair™ Duo-Luciferase HS Assay Kit (cat. no. LF600, Promega, USA) and normalized to the TK reporter signal.
In general terms: A reporter such as luciferase makes a cellular process visible.

Series [1] is described as follows: Pharmacokinetic study in male ICR mice. Format: in vivo, mouse. Particulars: plasma. How it is done: Male ICR mice weighing 25–30 g each were obtained from BioLASCO, Taiwan Co., Ltd., Ilan, Taiwan for pharmacokinetic study. Briefly, a single dose of BRRPT245 was given intravenously at 2 mg/kg or oral gavage at 10 mg/kg to the mice. Blood samples were taken at 0 (immediately before dosing), 2, 5 (iv only), 15 and 30 min and at 1, 2, 4, 6, 8, 16, and 24 h after administration. The T1/2 (half-life), Cl (clearance), Vss (steady-state volume of distribution), AUC (area under curve), Cmax (maximum plasma concentration), Tmax (time taken to reach Cmax), and F(bioavailability%) were calculated according to the published formula (Urso et al, [2002]).
The HPLC system consisted of an Agilent 1200 series LC System with BinPump (Waldbronn, Germany) and an Agilent Eclipse XDB C8 (3.0 × 150 mm, 5 µm) interfaced to a Sciex API 4000 tandem mass spectrometer. Mobile phase consisted of 10 mM ammonium acetate containing 0.1% of formic acid (Solvent A) and acetonitrile (Solvent B). For determination of BPTPT0245, the following stepwise gradient system was used: 85% A (0–0.5 min), 85% A to 15% A (0.6–3.0 min), 5% A (3.1–5.0 min). Total running time was 5 min. The retention times of BPRPT0245 and BPR0L187 (internal standard) (IS) were 2.21 and 2.42 min, respectively. Data acquisition was via selected ion monitoring (SIM). The collision energy was +37 V for the analyte and +38.5 V for IS, respectively. The ions monitored for BPRPT0245 were m/z 447/189 and m/z 357/195, respectively. […] Total running time was 6 min. […] Data acquisition was via SIM.
To prepare the BPRPT0245 plasma samples, 50 µL of the plasma sample mixed with 100 µL acetonitrile containing […] of BPR0L187. The mixture was vortexed for 30 s and then centrifuged at 15,000 rpm for 20 min in an Eppendorf Model 5417c centrifuge at room temperature. An aliquot (5 µL) of the mixture was then injected onto to LC-MS/MS.

Series [2] deals with T2, hPTGR2 (Homo sapiens, UniProt Q8N8N7). Put plainly: Enzyme kinetics (Lineweaver–Burk) of hPTGR2 with 15-keto-PGE2. In kind it is biochemical. More on the design: made in house.
T2 sequence (Q8N8N7 whole entry): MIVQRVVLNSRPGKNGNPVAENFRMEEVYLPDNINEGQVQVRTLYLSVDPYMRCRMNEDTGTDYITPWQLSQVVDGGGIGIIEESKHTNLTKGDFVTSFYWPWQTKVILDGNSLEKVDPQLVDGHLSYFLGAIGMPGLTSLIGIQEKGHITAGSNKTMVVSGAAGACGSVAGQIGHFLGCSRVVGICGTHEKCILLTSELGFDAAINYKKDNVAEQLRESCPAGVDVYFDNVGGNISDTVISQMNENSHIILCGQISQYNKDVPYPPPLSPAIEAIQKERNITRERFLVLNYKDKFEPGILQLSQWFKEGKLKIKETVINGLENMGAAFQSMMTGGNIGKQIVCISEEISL
The subject of series [3] is HFHSD-fed obese C57BL6/J mice. In words: Diet-induced thermogenesis. In kind it is in vivo, mouse. To be noted: for interscapular area temperature, Average: Figure 2S left panel; for interscapular area temperature, Average / inguinal area temperature, Average / rectal temperatures, Average / inguinal area temperature / interscapular area temperature / rectal temperatures: in °C; for inguinal area temperature, Average: Figure 2S middle panel; for rectal temperatures, Average: Figure 2S right panel; for inguinal area temperature / interscapular area temperature / rectal temperatures: Figure 2S, individual mice. How it is done:
For the cold tolerance test, 24-week-old mice with matched average body weight from the two groups were placed individually on HFHSD in a 4 °C chamber. The rectal temperature of the mice was measured after 0, 1, 2, 3, 4, 5, 6, 12, and 18 h. For measuring diet-induced thermogenesis, 24-week-old mice were fasted overnight for 18 h. Then, we measured their rectal temperature at 0, 30, 60, 90, 120, 150, 180, and 240 min after HFHSD refeeding. The rectal and surface temperature were detected by thermal probes (Physitemp Therma TH-5, ThermoWorks, Alpine and MicroTherma 2T, ThermoWorks, Alpine, respectively).

Series [4] deals with T2, hPTGR2. In words: Conversion of 15-keto-PGE2 by recombinant human PTGR2 protein. In kind it is biochemical. Particulars: incubated with recombinant human PTGR2 protein. Also noted: made in house.

“And” between values parts separate entries of the source, which are not always exact repeats. Identical values can stand only once.

Regarding `CCCCCC(=O)CC[C@H]1[C@H](O)CC(=O)[C@@H]1C/C=C\CCCC(=O)O` [13,14-dihydro-15-keto-PGE2], the “PPRE reporter activity, Fig 1M replicates” value is 1.0835 and 0.6291 and 0.9127 at mPPARγ C313A (1314dh-15kPGE2 5uM); 0.8254 and 0.8511 and 0.9733 at mPPARγ C313A (1314dh-15kPGE2 10uM).
Regarding `Cc1[nH]c2nc(C(C)N3CCN(c4ccccc4)CC3)nn2c(=O)c1Cc1ccc(F)cc1` (stereo not drawn) [BPRPT0245], the AUC(0-inf) came out at 480 ng·h/mL in series [1] (Mouse IV, dose 2 mg/kg) and 725 ng·h/mL in series [1] (Mouse PO, dose 10 mg/kg). The clearance in series [1] (Mouse IV, dose 2 mg/kg) turned out to be 79.5 mL/min/kg. For the same compound, the half-life in series [1] (Mouse IV, dose 2 mg/kg) is 120 min; in series [1] (Mouse PO, dose 10 mg/kg) it was 150 min. Besides, in series [1] (Mouse IV, dose 2 mg/kg, read-out: Vss), the Vd stood at 5 L/kg. For the same compound, in series [1] (Mouse PO, dose 10 mg/kg), the Cmax was found to be 398 ng/mL. In series [1] (Mouse PO, dose 10 mg/kg), the time of peak concentration (Tmax) was 24 min. Further, the bioavailability in series [1] (Mouse PO, dose 10 mg/kg, read-out: F(%) bioavailability) amounted to 30.2%. Besides, the “mode of inhibition (Lineweaver–Burk plot)” value on hPTGR2 [2] (BPRPT0245 50 nM) is on record as “competitive hPTGR2 inhibitor”. For the same compound, the “Lineweaver-Burk plot value, average (Figure 5H)” value is 0.05189 on hPTGR2 [2] (BPRPT0245 50 nM, 15-keto-PGE2(um) 0.01); 0.06506 on hPTGR2 [2] (BPRPT0245 50 nM, 15-keto-PGE2(um) 0.0142857); 0.06763 on hPTGR2 [2] (BPRPT0245 50 nM, 15-keto-PGE2(um) 0.02); 0.07832 on hPTGR2 [2] (BPRPT0245 50 nM, 15-keto-PGE2(um) 0.025); 0.1063 at hPTGR2 [2] (BPRPT0245 50 nM, 15-keto-PGE2(um) 0.0333333); 0.1377 at hPTGR2 [2] (BPRPT0245 50 nM, 15-keto-PGE2(um) 0.05). Besides, the “Lineweaver-Burk plot value, average (Figure 5H)” value on hPTGR2 [2] (BPRPT0245 50 nM, 15-keto-PGE2(um) 0.1) is on record as 0.2333. The “Vmax (change on addition of inhibitor)” value on hPTGR2 [2] (with BPRPT0245 50 nM) is on record as “remained unchanged”.
For the compound `CCCCCC(=O)/C=C/[C@H]1[C@H](O)CC(=O)[C@@H]1C/C=C\CCCC(=O)O` [15-keto-PGE2, 15-keto-prostaglandin E2], the “PPRE reporter activity, Fig 1M replicates” value was 1.1721 and 1.0341 and 1.1068 on mPPARγ C313A (15kPGE2 1uM); 0.9678 and 0.853 and 0.9258 at mPPARγ C313A (15kPGE2 5uM); 0.6267 and 0.6796 and 0.8917 at mPPARγ C313A (15kPGE2 10uM). The “PPRE reporter activity, mutant mPPARγ (C313A)” value at mPPARγ C313A (HEK293T) is listed as “abolished”. For the same compound, in series [3] (40 mg/kg/day ip, vs vehicle), the “interscapular, inguinal and rectal temperatures after HFHSD feeding” value is “higher interscapular, inguinal, and rectal temperatures after HFHSD feeding”. Also, the “interscapular area temperature, Average” value in series [3] (period 0 min) turned out to be 36.7067; in series [3] (period 30 min) it was 37.7933; in series [3] (period 60 min), 37.6333; in series [3] (period 120 min) it was 37.5133; in series [3] (period 180 min), 37.3533; in series [3] (period 240 min), 37.1267. In addition, the “inguinal area temperature, Average” value in series [3] (period 0 min) amounted to 35.1463; in series [3] (period 30 min) it was 36.4001; in series [3] (period 60 min), 36.234; in series [3] (period 120 min), 35.9052; in series [3] (period 180 min), 35.7573; in series [3] (period 240 min), 35.4703. Further, the “rectal temperatures, Average” value was 36.6549 in series [3] (period 0 min); 37.7723 in series [3] (period 30 min); 37.6257 in series [3] (period 60 min); 37.398 in series [3] (period 120 min); 37.3676 in series [3] (period 180 min); 37.1984 in series [3] (period 240 min). Further, the inguinal area temperature was 35.4 and 35.2 and 34.79 and 34.8 and 34.56 and 35 and 35.185 and 35.735 and 36 and 34.735 and 35.25 and 35.645 and 34.88 and 34.815 in series [3] (period 0 min); 36.955 and 36.815 and 36.705 and 36.42 and 36.0964 and 35.905 and 36.6 and 35.865 and 35.975 and 36.115 and 36.825 and 36.785 and 36.43 and 36.095 and 36.415 in series [3] (period 30 min); 36.755 and 36.7 and 36.085 and 36.255 and 36.2 and 35.5 and 35.9 and 35.67 and 36.1 and 36.955 and 36.3 and 36.545 and 36.31 and 35.98 in series [3] (period 60 min); 36.81 and 36.5 and 36.135 and 35.755 and 36.1679 and 35.38 and 35.6 and 35.29 and 35.4 and 36.16 and 36.2 and 35.9 and 36.075 and 35.355 and 35.85 in series [3] (period 120 min); 36.105 and 36.3 and 36.27 and 35.585 and 35.8 and 35.3 and 35.4 and 35.7 and 36.1 and 35.765 and 35.535 in series [3] (period 180 min); 35.995 and 36.065 and 35.575 and 35.82 and 35.715 and 35.26 and 35.2 and 35.6 and 36.2 and 35.1 and 35.12 and 34.905 in series [3] (period 240 min). The interscapular area temperature is 36.9 and 37.4 and 36.4 and 36.8 and 36.6 and 37.8 and 35.4 and 36.2 and 37 in series [3] (period 0 min); 38.1 and 38.2 and 37.6 and 37.2 and 37.5 and 37.7 and 37.9 and 37.8 in series [3] (period 30 min); 38 and 38.3 and 37.8 and 37.5 and 37.7 and 37.4 and 37.6 and 37.2 in series [3] (period 60 min); 37.7 and 38.2 and 37.9 and 37.6 and 37.2 and 37.1 and 37.5 and 37.4 and 37.3 in series [3] (period 120 min); 37.5 and 38.4 and 37.6 and 37.4 and 36.5 and 37.2 and 37.1 and 36.9 and 37 and 37.8 in series [3] (period 180 min); 37.1 and 37.5 and 37 and 37.2 and 37.3 and 36.2 and 36.8 and 37.4 and 36.6 in series [3] (period 240 min). In addition, the rectal temperatures in series [3] (period 0 min) is 36.805 and 37.06 and 36.54 and 36.445; in series [3] (period 30 min) it was 38.255 and 38.275 and 37.755 and 37.72; in series [3] (period 60 min) it was 38.085 and 37.94 and 37.88 and 37.79; in series [3] (period 120 min) it was 37.95 and 37.965 and 37.615; in series [3] (period 180 min), 37.665 and 37.81 and 37.52; in series [3] (period 240 min), 37.705 and 37.57 and 37.21. Moreover, at hPTGR2 [4], the “15-keto-PGE2 converted into 13,14-dihydro-15-keto-PGE2” value is given as 99.83%. For the same compound, the Michaelis constant (Km) on hPTGR2 [2] (read-out: Km between 15-keto-PGE2 and hPTGR2, without BPRPT0245) came out at 29.1 ± 0.77 µM.

In general, AUC(0-inf) refers to the area under the concentration-time curve extrapolated to infinity. A word on the clearance: it is the rate of elimination divided by the concentration. In general, half-life refers to the time in which the quantity being followed falls by half. For orientation: Cmax means the maximum level reached in the sampled fluid or tissue. Usually Tmax stands for the time at which the peak concentration occurs. The term bioavailability denotes the share of a dose that reaches the circulation, judged against a reference dose that is usually intravenous. Broadly, the Km is the substrate concentration at which the rate is half of its maximum.

(Values after publication PMC12081876, “Identification of PTGR2 inhibitors as a new therapeutic strategy for diabetes and obesity” (EMBO Molecular Medicine, 2025).)
